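Exposure lasted 48 hours, with cells grown in 96-well plates and compounds tested at five concentrations. Here, GI50 denotes the concentration required for 50% inhibition of growth.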 Activity calls are given as the source filed them. No stated cut-off is given here; in the data, active = GI50 up to about 1.1 µM and inactive = higher.
Experiments:
Experiment in all cases: inhibition of tumour cell growth, NCI panel, 48 h
[1] = test system: NCI-H460
[2] = test system: HCT-116
[3] = test system: DU-145
[4] = test system: M14
[5] = test system: LOX IMVI
[6] = test system: HL-60
[7] = test system: RXF 393
[8] = test system: CCRF-CEM
[9] = test system: COLO 205
[10] = test system: SF-539
[11] = test system: RPMI-8226
[12] = test system: BT-549
[13] = test system: IGROV-1
[14] = test system: K562
[15] = test system: SK-MEL-2
[16] = test system: MDA-MB-435
[17] = test system: SR
[18] = test system: PC-3
[19] = test system: HCC 2998
[20] = test system: CAKI-1
[21] = test system: MDA-N
[22] = test system: UACC-257
[23] = test system: Hs-578T
[24] = test system: T47D
[25] = test system: MCF7
[26] = test system: TK-10
[27] = test system: SNB-19
[28] = test system: SN12C
[29] = test system: KM12
[30] = test system: UACC-62
[31] = test system: SK-MEL-5
[32] = test system: HOP-92
[33] = test system: SF-268
[34] = test system: SW-620
[35] = test system: Malme-3M
[36] = test system: 786-0
[37] = test system: OVCAR-4
[38] = test system: NCI/ADR-RES
[39] = test system: SK-OV-3
[40] = test system: NCI-H522
[41] = test system: HOP-62
[42] = test system: OVCAR-3
[43] = test system: UO-31
[44] = test system: MOLT-4
[45] = test system: NCI-H23
[46] = test system: A549
[47] = test system: SK-MEL-28
[48] = test system: ACHN
[49] = test system: U-251
[50] = test system: SF-295
[51] = test system: MDA-MB-231
[52] = test system: EKVX
[53] = test system: NCI-H226
[54] = test system: OVCAR-5
[55] = test system: OVCAR-8
[56] = test system: HCT-15
[57] = test system: SNB-75
[58] = test system: HT-29

In the case of `CCCCOCCOCCOC1=CC(=O)c2c(O)ccc(O)c2C1=O`, the GI50 [1] is reported as 1.95 µM (inactive), the GI50 [2] is reported as 1.76 µM (inactive) and the GI50 [3] is reported as 1.7 µM (inactive). For the same compound, the GI50 [4] was 1.51 µM (inactive), the GI50 [5] was 1.86 µM (inactive) and the GI50 [6] was 2.27 µM (inactive). The GI50 [7] was 1.94 µM (inactive), the GI50 [8] was 2.14 µM (inactive) and the GI50 [9] was 1.4 µM (inactive). For the same compound, the GI50 [10] was 2.03 µM (inactive), the GI50 [11] was 2.4 µM (inactive) and the GI50 [12] was 1.77 µM (inactive). The GI50 [13] was 1.89 µM (inactive), the GI50 [14] was 2.5 µM (inactive) and the GI50 [15] was 1.9 µM (inactive). The GI50 [16] was 0.188 µM (active), the GI50 [17] was 2.7 µM (inactive) and the GI50 [18] was 3 µM (inactive). The GI50 [19] was 1.82 µM (inactive), the GI50 [20] was 1.95 µM (inactive) and the GI50 [21] was 0.167 µM (active). The GI50 [22] was 1.58 µM (inactive), the GI50 [23] was 2.55 µM (inactive) and the GI50 [24] was 2.65 µM (inactive). The GI50 [25] was 1.75 µM (inactive), the GI50 [26] was 3.05 µM (inactive) and the GI50 [27] was 1.79 µM (inactive). The GI50 [28] was 1.82 µM (inactive), the GI50 [29] was 1.83 µM (inactive) and the GI50 [30] was 1.82 µM (inactive). The GI50 [31] was 1.05 µM (active), the GI50 [32] was 2.9 µM (inactive) and the GI50 [33] was 4.26 µM (inactive). For the same compound, the GI50 [34] was 1.57 µM (inactive), the GI50 [35] was 0.4 µM (active) and the GI50 [36] was 1.6 µM (inactive). The GI50 [37] was 1.94 µM (inactive), the GI50 [38] was 2.14 µM (inactive) and the GI50 [39] was > 10 µM (inactive). The GI50 [40] was 1.63 µM (inactive), the GI50 [41] was 1.79 µM (inactive) and the GI50 [42] was 1.61 µM (inactive). The GI50 [43] was 1.58 µM (inactive), the GI50 [44] was 2.65 µM (inactive) and the GI50 [45] was 1.82 µM (inactive). The GI50 [46] was 1.8 µM (inactive), the GI50 [47] was 1.53 µM (inactive) and the GI50 [48] was 1.66 µM (inactive). For the same compound, the GI50 [49] was 1.85 µM (inactive), the GI50 [50] was 1.68 µM (inactive) and the GI50 [51] was 1.73 µM (inactive). The GI50 [52] was 5.19 µM (inactive) and the GI50 [53] was 2.01 µM (inactive).

With `Cc1ccc(C(=O)Oc2ccc(/C=C3\CCC/C(=C\c4ccc(OC(=O)c5ccc(C)cc5)cc4)C3=O)cc2)cc1` the GI50 [1] was > 100 µM (inactive), the GI50 [2] was > 100 µM (inactive) and the GI50 [3] was > 100 µM (inactive). The GI50 [4] was > 100 µM (inactive), the GI50 [5] was > 100 µM (inactive) and the GI50 [6] was > 100 µM (inactive). The GI50 [8] was > 100 µM (inactive), the GI50 [54] was > 100 µM (inactive) and the GI50 [9] was > 100 µM (inactive). For the same compound, the GI50 [10] was > 100 µM (inactive), the GI50 [55] was > 100 µM (inactive) and the GI50 [11] was > 100 µM (inactive). The GI50 [12] was > 100 µM (inactive), the GI50 [13] was > 100 µM (inactive) and the GI50 [15] was > 100 µM (inactive). For the same compound, the GI50 [16] was > 100 µM (inactive), the GI50 [56] was over 100 µM and the GI50 [17] was > 100 µM (inactive). The GI50 [18] was > 100 µM (inactive), the GI50 [19] was > 100 µM (inactive) and the GI50 [20] was > 100 µM (inactive). For the same compound, the GI50 [21] was > 100 µM (inactive), the GI50 [22] was > 100 µM (inactive) and the GI50 [23] was > 100 µM (inactive). For the same compound, the GI50 [24] was > 100 µM (inactive), the GI50 [25] was > 100 µM (inactive) and the GI50 [26] was > 100 µM (inactive). For the same compound, the GI50 [57] was 79.8 µM (inactive), the GI50 [27] was > 100 µM (inactive) and the GI50 [28] was > 100 µM (inactive). For the same compound, the GI50 [29] was > 100 µM (inactive), the GI50 [30] was > 100 µM (inactive) and the GI50 [31] was > 100 µM (inactive). The GI50 [32] was > 100 µM (inactive), the GI50 [33] was > 100 µM (inactive) and the GI50 [34] was > 100 µM (inactive). The GI50 [58] was > 100 µM (inactive), the GI50 [36] was > 100 µM (inactive) and the GI50 [37] was > 100 µM (inactive). For the same compound, the GI50 [38] was > 100 µM (inactive), the GI50 [40] was > 100 µM (inactive) and the GI50 [41] was > 100 µM (inactive). The GI50 [42] was > 100 µM (inactive), the GI50 [43] was > 100 µM (inactive) and the GI50 [44] was > 100 µM (inactive). For the same compound, the GI50 [45] was > 100 µM (inactive), the GI50 [46] was > 100 µM (inactive) and the GI50 [47] was > 100 µM (inactive). The GI50 [48] was > 100 µM (inactive), the GI50 [49] was > 100 µM (inactive) and the GI50 [50] was > 100 µM (inactive). The GI50 [51] was > 100 µM (inactive) and the GI50 [52] was > 100 µM (inactive).

With `CC1CCc2sc3nc(S)n(-c4ccccc4)c(=O)c3c2C1` (stereo unspecified) the GI50 [1] was 34.4 µM (inactive), the GI50 [2] was > 100 µM (inactive) and the GI50 [3] was 63.4 µM (inactive). The GI50 [4] was > 100 µM (inactive), the GI50 [5] was 47.2 µM (inactive) and the GI50 [7] was 35.8 µM (inactive). The GI50 [54] was 86.9 µM (inactive), the GI50 [9] was > 100 µM (inactive) and the GI50 [55] was > 100 µM (inactive). For the same compound, the GI50 [11] was 53 µM (inactive), the GI50 [12] was > 100 µM (inactive) and the GI50 [13] was 47.4 µM (inactive). The GI50 [14] was > 100 µM (inactive), the GI50 [15] was 27.7 µM (inactive) and the GI50 [16] was > 100 µM (inactive). The GI50 [56] was over 100 µM, the GI50 [17] was 33.4 µM (inactive) and the GI50 [18] was 33.3 µM (inactive). For the same compound, the GI50 [19] was 21.6 µM (inactive), the GI50 [20] was > 100 µM (inactive) and the GI50 [21] was > 100 µM (inactive). The GI50 [22] was 63.8 µM (inactive), the GI50 [23] was 61.1 µM (inactive) and the GI50 [24] was 33.4 µM (inactive). The GI50 [25] was 39 µM (inactive), the GI50 [26] was 57.8 µM (inactive) and the GI50 [57] was 29.3 µM (inactive). For the same compound, the GI50 [27] was 45.5 µM (inactive), the GI50 [28] was > 100 µM (inactive) and the GI50 [29] was 75.2 µM (inactive). For the same compound, the GI50 [30] was 31.3 µM (inactive), the GI50 [31] was 44.1 µM (inactive) and the GI50 [32] was 37.7 µM (inactive). For the same compound, the GI50 [33] was 85.7 µM (inactive), the GI50 [34] was > 100 µM (inactive) and the GI50 [58] was 39.6 µM (inactive). The GI50 [35] was 66.8 µM (inactive), the GI50 [36] was 62.7 µM (inactive) and the GI50 [37] was 39.7 µM (inactive). For the same compound, the GI50 [38] was > 100 µM (inactive), the GI50 [39] was 55.1 µM (inactive) and the GI50 [40] was > 100 µM (inactive). For the same compound, the GI50 [41] was 36.3 µM (inactive), the GI50 [42] was 39.6 µM (inactive) and the GI50 [43] was 15.1 µM (inactive). For the same compound, the GI50 [44] was 41.1 µM (inactive), the GI50 [45] was 92.7 µM (inactive) and the GI50 [46] was 81.8 µM (inactive). The GI50 [47] was 93.1 µM (inactive), the GI50 [48] was 62.5 µM (inactive) and the GI50 [49] was 49.2 µM (inactive). The GI50 [50] was 27.7 µM (inactive), the GI50 [51] was 53.8 µM (inactive) and the GI50 [52] was > 100 µM (inactive). The GI50 [53] was 48.9 µM (inactive).

Source: ChEMBL document CHEMBL1201862, “PubChem BioAssay data set” (2004)
